The assay has as its system lipodystrophy. The assay can be described thus: Observation of lipodystrophy signs and symptoms in patients using pentoxifylline for claudication. It counts as in vivo, human. The text has this:
It is believed that 80-85% of patients respond favorably with amelioration some or all of their symptoms.

The mark [1] stands for this setting: diabetic HIV positive patients using pentoxifylline for claudication.

SMILES strings stand for the structures.

Consider `CC(=O)CCCCn1c(=O)c2c(ncn2C)n(C)c1=O` [pentoxifylline], for which, under setting [1], the central fat deposition result is “resolved or remitted”, the facial lines entry was “decreased and/or disappeared” and the leg vein prominence result is given as “diminished or disappeared”. Also, where the note is “diabetic HIV positive patients with peripheral vascular disease and intermittent claudication, using pentoxifylline for claudication”, the “signs and symptoms of lipodystrophy” value is recorded as “disappeared or were ameliorated”. Besides, the “patients responding favorably with amelioration of some or all of their symptoms” value (patients using pentoxifylline, stated as 'It is believed') is on record as 80-85%.

These data come from US20040209900A1, “Treatment of lipodystrophy (lipid redistribution syndrome)” (priority 2003, published 2004).
